Test system: desired test plant species
Assay: Foliar-applied postemergence herbicidal activity in direct seeded rice (Table 6)
Assay type: in vivo
Settings: 21 DAA
Text: Seeds or nutlets of the desired test plant species were planted in a soil matrix prepared by mixing a loam soil (43 percent silt, 19 percent clay, and 38 percent sand, with a pH of about 8.1 and an organic matter content of about 1.5 percent) and river sand in an 80 to 20 ratio. The soil matrix was contained in plastic pots with a surface area of 139.7 cm^2. When required to ensure good germination and healthy plants, a fungicide treatment and/or other chemical or physical treatment was applied. The plants were grown for 10-17 d in a greenhouse with an approximate 14-h photoperiod which was maintained at about 29° C. during the day and 26° C. during the night. Nutrients and water were added on a regular basis and supplemental lighting was provided with overhead metal halide 1000-Watt lamps as necessary. The plants were employed for testing when they reached the second or third true leaf stage. Treatments consisted of compounds 45, 34, and 66. Weighed amounts of technical compounds were placed in individual 25 mL glass vials and dissolved in 8 mL of 97:3 v/v acetone-DMSO to obtain stock solutions. […] The spray application solutions were prepared by removing 4 mL of the stock solution and diluting with 4 mL of 97:3 v/v acetone-DMSO and continued serial dilution to obtain 1⁄2×, 1⁄4×, 1⁄8×, and 1/16× rates of the high rate. Spray solutions were diluted to the appropriate final concentrations with the addition of 8 mL of an aqueous mixture of 1.875% (v/v) Agri-dex crop oil concentrate. The final 12-mL spray solutions each contained 1.25% (v/v) Agri-dex crop oil concentrate, 32.3% acetone, and 1.0% DMSO. Compound requirements are based upon a 12 mL application volume at a rate of 187 L/ha. Spray solutions were applied to the plant material with an overhead Mandel track sprayer equipped with […] nozzles calibrated to deliver 187 L/ha over an application area of 0.503 square meters (m^2) at a spray height of 18 inches ([…]) above average plant canopy height. Control plants were sprayed in the same manner with the solvent blank. The treated plants and control plants were placed in a greenhouse as described above and watered by sub-irrigation to prevent wash-off of the test compounds. After approximately 3 weeks, the condition of the test plants, compared with that of the untreated plants, was determined visually and scored on a scale of 0 to 100 percent where 0 corresponds to no injury and 100 corresponds to complete kill. By applying the well-accepted probit analysis as described by J. Berkson in Journal of the […], 48, 565 (1953) and by D. Finney in “Probit Analysis” Cambridge University Press (1952) or by plotting the mean data and fitting a logarithmic curve to the portion of the data where there was a dose response using Microsoft Excel®, the above data can be used to calculate GR50 and GR90 values, which are defined as growth reduction factors that correspond to the effective dose of herbicide required to kill or control 50 percent or 90 percent, respectively, of a target plant.

Question: `COC(=O)c1nc(-c2ccc(Cl)c(OC)c2F)c(F)c(N)c1OC` [Compound 34] was tested. Which “Mean Visual Injury (%)-21 Days After Application AESSE” value (AESSE (Aeschynomene sensitiva, sensitive jointvetch), 4.38 g ae/ha) did it give?
Answer: The value was 100%.

Question: What about the “Mean Visual Injury (%)-21 Days After Application AESSE” value (AESSE (Aeschynomene sensitiva, sensitive jointvetch), 8.75 g ae/ha) of the same molecule?
Answer: Its value is 100%.

Question: And the “Mean Visual Injury (%)-21 Days After Application AESSE” value (AESSE (Aeschynomene sensitiva, sensitive jointvetch), 17.5 g ae/ha)?
Answer: The value was 100%.

Question: What about the “Mean Visual Injury (%)-21 Days After Application AESSE” value (AESSE (Aeschynomene sensitiva, sensitive jointvetch), 35 g ae/ha) of the same molecule?
Answer: The value was 100%.

Question: What about the “Mean Visual Injury (%)-21 Days After Application AESSE” value (AESSE (Aeschynomene sensitiva, sensitive jointvetch), 70 g ae/ha) of the same molecule?
Answer: Its value is 100%.

Question: And the “GR50 AESSE” value (AESSE (Aeschynomene sensitiva, sensitive jointvetch), dose to kill or control 50 percent)?
Answer: Its value is less than 4.38 g ae/ha.

Question: What about the “GR90 AESSE” value (AESSE (Aeschynomene sensitiva, sensitive jointvetch), dose to kill or control 90 percent) of the same molecule?
Answer: The value was less than 4.38 g ae/ha.

Question: And the “Mean Visual Injury (%)-21 Days After Application BRAPP” value (BRAPP (Brachiaria platyphylla, broadleaf signalgrass), 4.38 g ae/ha)?
Answer: Its value is 73%.

Question: And the “Mean Visual Injury (%)-21 Days After Application BRAPP” value (BRAPP (Brachiaria platyphylla, broadleaf signalgrass), 8.75 g ae/ha)?
Answer: Its value is 77%.

Question: And the “Mean Visual Injury (%)-21 Days After Application BRAPP” value (BRAPP (Brachiaria platyphylla, broadleaf signalgrass), 17.5 g ae/ha)?
Answer: The value was 93%.

Question: What about the “Mean Visual Injury (%)-21 Days After Application BRAPP” value (BRAPP (Brachiaria platyphylla, broadleaf signalgrass), 35 g ae/ha) of the same molecule?
Answer: The value was 92%.

Question: And the “Mean Visual Injury (%)-21 Days After Application BRAPP” value (BRAPP (Brachiaria platyphylla, broadleaf signalgrass), 70 g ae/ha)?
Answer: The value was 93%.

Question: What about the “GR50 BRAPP” value (BRAPP (Brachiaria platyphylla, broadleaf signalgrass), dose to kill or control 50 percent) of the same molecule?
Answer: Its value is less than 4.38 g ae/ha.

Question: And the “GR90 BRAPP” value (BRAPP (Brachiaria platyphylla, broadleaf signalgrass), dose to kill or control 90 percent)?
Answer: Its value is 30.2 g ae/ha.

Question: And the “Mean Visual Injury (%)-21 Days After Application CYPDI” value (CYPDI (Cyperus difformis, small-flower flatsedge), 4.38 g ae/ha)?
Answer: Its value is 87%.

Question: And the “Mean Visual Injury (%)-21 Days After Application CYPDI” value (CYPDI (Cyperus difformis, small-flower flatsedge), 8.75 g ae/ha)?
Answer: The value was 95%.

Question: What about the “Mean Visual Injury (%)-21 Days After Application CYPDI” value (CYPDI (Cyperus difformis, small-flower flatsedge), 17.5 g ae/ha) of the same molecule?
Answer: Its value is 100%.

Question: And the “Mean Visual Injury (%)-21 Days After Application CYPDI” value (CYPDI (Cyperus difformis, small-flower flatsedge), 35 g ae/ha)?
Answer: Its value is 100%.

Question: And the “Mean Visual Injury (%)-21 Days After Application CYPDI” value (CYPDI (Cyperus difformis, small-flower flatsedge), 70 g ae/ha)?
Answer: Its value is 100%.

Question: And the “GR50 CYPDI” value (CYPDI (Cyperus difformis, small-flower flatsedge), dose to kill or control 50 percent)?
Answer: The value was less than 4.38 g ae/ha.

Question: And the “GR90 CYPDI” value (CYPDI (Cyperus difformis, small-flower flatsedge), dose to kill or control 90 percent)?
Answer: Its value is 5.8 g ae/ha.

Question: What about the “Mean Visual Injury (%)-21 Days After Application CYPES” value (CYPES (Cyperus esculentus, yellow nutsedge), 4.38 g ae/ha) of the same molecule?
Answer: Its value is 73%.

Question: What about the “Mean Visual Injury (%)-21 Days After Application CYPES” value (CYPES (Cyperus esculentus, yellow nutsedge), 8.75 g ae/ha) of the same molecule?
Answer: Its value is 73%.

Question: And the “Mean Visual Injury (%)-21 Days After Application CYPES” value (CYPES (Cyperus esculentus, yellow nutsedge), 17.5 g ae/ha)?
Answer: The value was 85%.

Question: What about the “Mean Visual Injury (%)-21 Days After Application CYPES” value (CYPES (Cyperus esculentus, yellow nutsedge), 35 g ae/ha) of the same molecule?
Answer: The value was 95%.

Question: And the “Mean Visual Injury (%)-21 Days After Application CYPES” value (CYPES (Cyperus esculentus, yellow nutsedge), 70 g ae/ha)?
Answer: Its value is 100%.

Question: And the “GR50 CYPES” value (CYPES (Cyperus esculentus, yellow nutsedge), dose to kill or control 50 percent)?
Answer: Its value is less than 4.38 g ae/ha.

Question: What about the “GR90 CYPES” value (CYPES (Cyperus esculentus, yellow nutsedge), dose to kill or control 90 percent) of the same molecule?
Answer: Its value is 27.4 g ae/ha.

Question: And the “Mean Visual Injury (%)-21 Days After Application CYPIR” value (CYPIR (Cyperus iria, rice flatsedge), 4.38 g ae/ha)?
Answer: The value was 83%.

Question: And the “Mean Visual Injury (%)-21 Days After Application CYPIR” value (CYPIR (Cyperus iria, rice flatsedge), 8.75 g ae/ha)?
Answer: The value was 97%.

Question: What about the “Mean Visual Injury (%)-21 Days After Application CYPIR” value (CYPIR (Cyperus iria, rice flatsedge), 17.5 g ae/ha) of the same molecule?
Answer: Its value is 98%.

Question: And the “Mean Visual Injury (%)-21 Days After Application CYPIR” value (CYPIR (Cyperus iria, rice flatsedge), 35 g ae/ha)?
Answer: The value was 100%.

Question: And the “Mean Visual Injury (%)-21 Days After Application CYPIR” value (CYPIR (Cyperus iria, rice flatsedge), 70 g ae/ha)?
Answer: Its value is 100%.

Question: And the “GR50 CYPIR” value (CYPIR (Cyperus iria, rice flatsedge), dose to kill or control 50 percent)?
Answer: Its value is less than 4.38 g ae/ha.

Question: What about the “GR90 CYPIR” value (CYPIR (Cyperus iria, rice flatsedge), dose to kill or control 90 percent) of the same molecule?
Answer: Its value is 6.7 g ae/ha.

Question: And the “Mean Visual Injury (%)-21 Days After Application ECHCG” value (ECHCG (Echinochloa crus-galli, barnyardgrass), 4.38 g ae/ha)?
Answer: Its value is 93%.

Question: What about the “Mean Visual Injury (%)-21 Days After Application ECHCG” value (ECHCG (Echinochloa crus-galli, barnyardgrass), 8.75 g ae/ha) of the same molecule?
Answer: The value was 93%.

Question: And the “Mean Visual Injury (%)-21 Days After Application ECHCG” value (ECHCG (Echinochloa crus-galli, barnyardgrass), 17.5 g ae/ha)?
Answer: Its value is 96%.

Question: What about the “Mean Visual Injury (%)-21 Days After Application ECHCG” value (ECHCG (Echinochloa crus-galli, barnyardgrass), 35 g ae/ha) of the same molecule?
Answer: The value was 98%.

Question: And the “Mean Visual Injury (%)-21 Days After Application ECHCG” value (ECHCG (Echinochloa crus-galli, barnyardgrass), 70 g ae/ha)?
Answer: The value was 95%.

Question: And the “GR50 ECHCG” value (ECHCG (Echinochloa crus-galli, barnyardgrass), dose to kill or control 50 percent)?
Answer: Its value is less than 4.38 g ae/ha.

Question: And the “GR90 ECHCG” value (ECHCG (Echinochloa crus-galli, barnyardgrass), dose to kill or control 90 percent)?
Answer: The value was less than 4.38 g ae/ha.

Source: patent US9518018B2, “3-alkoxy, thioalkyl and amino-4-amino-6-(substituted)picolinates and their use as herbicides” (Dow AgroSciences LLC, priority 2011, dated 2016)
